Measured values: US20160237491A1, “METHODS FOR TREATING HCV” (AbbVie Inc., priority 2013, published 2016)

Tested on: HCV
Assay: Viral load in treatment-naïve patients on Compound 1 and ritonavir for 3 days, then added peginterferon and ribavirin, grouped by IL28B PM02 methylation
Format: in vivo, human
Details: FIG. 3
Procedure: Twenty-one (21) treatment-naïve patients were included in the study. The patients received Compound 1 and ritonavir for three days followed by the addition of peginterferon and ribavirin for a total of 12 weeks of combination treatment. DNA samples obtained prior to the initiation of treatment were analyzed for methylation in a CpG island in the IL28B promoter corresponding to SEQ ID NO:2 (PM02). Subjects were grouped based on methylation level of PM02. Eleven (11) subjects had methylation values below 45% (diamonds). Ten (10) subjects had methylation values above 45% (squares). Viral load was assessed on Day 1 (“D1”), Day 2 (“D2”), Day 3 (“D3”), Day 4 (“D4”), Day 5 (“D5”), and Day 10 (“D10”) of treatment.

In the case of `Cc1cnc(C(=O)N[C@H]2CCCCC/C=C\[C@@H]3C[C@@]3(C(=O)NS(=O)(=O)C3CC3)NC(=O)[C@@H]3C[C@@H](Oc4nc5ccccc5c5ccccc45)CN3C2=O)cn1` [Compound 1, (2R,6S,13aS,14aR,16aS,Z)—N-(cyclopropylsulfonyl)-6-(5-methylpyrazine-2-carboxamido)-5,16-dioxo-2-(phenanthridin-6-yloxy)-1,2,3,5,6,7,8,9,10,11,13a,14,14a,15,16,16a-hexadecahydrocyclopropa[e]pyrrolo[1,2-a][1,4]diazacyclopentadecine-14a-carboxamide], the “reduction in viral load” value (after 10 days of treatment, Compound 1 + ritonavir 3 days, then peginterferon and ribavirin added, both groups (PM02 methylation below 45% n=11, above 45% n=10)) is reported as “dramatic reduction in viral load” and the “effect of PM02 methylation status on response” value (treatment-naïve patients, 10 days of treatment) is reported as “does not affect response”.
